Results taken from PubChem BioAssay AID2696 (Johns Hopkins Ion Channel Center, 2010).

Target: Short transient receptor potential channel 6 (Mus musculus) (UniProt Q61143)
Assay: TRPC6 inhibitor potency, dose response, cell-based, mouse TRPC6, HEK293, membrane potential (AID 2696)
Conditions: TRPC6-expressing HEK293 cells, membrane potential dye fluorescence, acetylcholine-stimulated

Short transient receptor potential channel 6 (Mus musculus), sequence (Q61143 whole entry, looked up): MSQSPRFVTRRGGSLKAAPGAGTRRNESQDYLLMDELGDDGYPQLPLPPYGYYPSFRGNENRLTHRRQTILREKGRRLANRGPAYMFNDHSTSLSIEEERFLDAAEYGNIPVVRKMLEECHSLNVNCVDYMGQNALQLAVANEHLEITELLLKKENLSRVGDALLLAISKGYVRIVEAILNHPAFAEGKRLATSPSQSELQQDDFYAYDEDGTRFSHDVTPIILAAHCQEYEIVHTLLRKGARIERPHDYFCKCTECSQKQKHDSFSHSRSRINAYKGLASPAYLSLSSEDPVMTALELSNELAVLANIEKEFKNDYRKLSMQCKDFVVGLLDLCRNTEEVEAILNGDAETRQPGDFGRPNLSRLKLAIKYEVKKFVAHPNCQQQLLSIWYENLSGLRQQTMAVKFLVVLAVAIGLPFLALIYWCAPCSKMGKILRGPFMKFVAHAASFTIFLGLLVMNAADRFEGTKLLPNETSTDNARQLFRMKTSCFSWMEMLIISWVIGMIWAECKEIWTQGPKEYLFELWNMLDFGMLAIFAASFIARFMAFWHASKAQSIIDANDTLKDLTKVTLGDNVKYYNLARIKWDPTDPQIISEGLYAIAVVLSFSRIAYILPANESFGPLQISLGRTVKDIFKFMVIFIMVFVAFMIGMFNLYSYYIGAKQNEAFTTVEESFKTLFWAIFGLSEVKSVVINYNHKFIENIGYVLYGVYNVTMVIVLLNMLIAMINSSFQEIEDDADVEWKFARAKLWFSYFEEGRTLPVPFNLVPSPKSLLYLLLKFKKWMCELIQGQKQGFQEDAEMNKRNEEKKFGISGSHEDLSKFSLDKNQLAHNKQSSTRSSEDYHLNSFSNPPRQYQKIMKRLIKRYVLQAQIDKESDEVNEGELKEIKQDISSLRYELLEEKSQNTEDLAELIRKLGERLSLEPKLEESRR

Row | Compound | IC50
1 | CC(C)(C)NCc1cc(Br)ccc1OCc1cccs1 | 70.8 µM
2 | S=C1N(c2ccccc2)C(c2ccc(Cl)cc2)N2CCCN12 (configuration not stated) | 17.8 µM
